Measured values published in ChEMBL document CHEMBL5376027, “Discovery of 5-trifluoromethyl-2-aminopyrimidine derivatives as potent dual inhibitors of FLT3 and CHK1” (RSC Med Chem, 2024).
Activity calls are given as the source filed them. No cut-off for these calls is given here.

What was measured:
[1] = molecular target: T1, Serine/threonine-protein kinase Chk1 (Homo sapiens, UniProt O14757)
T1 sequence (O14757 whole entry): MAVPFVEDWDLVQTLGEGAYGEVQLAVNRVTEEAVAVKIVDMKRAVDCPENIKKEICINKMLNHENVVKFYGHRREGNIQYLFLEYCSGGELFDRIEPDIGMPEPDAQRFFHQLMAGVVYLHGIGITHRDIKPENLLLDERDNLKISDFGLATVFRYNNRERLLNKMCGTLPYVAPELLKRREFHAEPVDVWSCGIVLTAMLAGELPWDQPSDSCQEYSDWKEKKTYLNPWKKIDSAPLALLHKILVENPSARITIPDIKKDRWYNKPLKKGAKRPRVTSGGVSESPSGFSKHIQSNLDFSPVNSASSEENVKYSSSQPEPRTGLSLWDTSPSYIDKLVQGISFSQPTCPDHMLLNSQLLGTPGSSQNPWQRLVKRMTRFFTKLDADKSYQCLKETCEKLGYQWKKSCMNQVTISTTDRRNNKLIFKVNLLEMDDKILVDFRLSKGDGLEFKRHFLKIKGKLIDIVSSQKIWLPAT
Description: Inhibition of CHK1 (unknown origin) using peptide substrate incubated for 1 hrs in presence of ATP by fluorescence microplate reader analysis

[2] = molecular target: hERG (KCNH2) (Homo sapiens, UniProt Q12809); test: Inhibition of hERG expressed in HEK293 cells at 10 uM incubated by patch clamp assay relative to control; assay type: toxicity, cell-based; settings: HEK293 cells that express hERG
hERG (KCNH2), sequence (Q12809 whole entry): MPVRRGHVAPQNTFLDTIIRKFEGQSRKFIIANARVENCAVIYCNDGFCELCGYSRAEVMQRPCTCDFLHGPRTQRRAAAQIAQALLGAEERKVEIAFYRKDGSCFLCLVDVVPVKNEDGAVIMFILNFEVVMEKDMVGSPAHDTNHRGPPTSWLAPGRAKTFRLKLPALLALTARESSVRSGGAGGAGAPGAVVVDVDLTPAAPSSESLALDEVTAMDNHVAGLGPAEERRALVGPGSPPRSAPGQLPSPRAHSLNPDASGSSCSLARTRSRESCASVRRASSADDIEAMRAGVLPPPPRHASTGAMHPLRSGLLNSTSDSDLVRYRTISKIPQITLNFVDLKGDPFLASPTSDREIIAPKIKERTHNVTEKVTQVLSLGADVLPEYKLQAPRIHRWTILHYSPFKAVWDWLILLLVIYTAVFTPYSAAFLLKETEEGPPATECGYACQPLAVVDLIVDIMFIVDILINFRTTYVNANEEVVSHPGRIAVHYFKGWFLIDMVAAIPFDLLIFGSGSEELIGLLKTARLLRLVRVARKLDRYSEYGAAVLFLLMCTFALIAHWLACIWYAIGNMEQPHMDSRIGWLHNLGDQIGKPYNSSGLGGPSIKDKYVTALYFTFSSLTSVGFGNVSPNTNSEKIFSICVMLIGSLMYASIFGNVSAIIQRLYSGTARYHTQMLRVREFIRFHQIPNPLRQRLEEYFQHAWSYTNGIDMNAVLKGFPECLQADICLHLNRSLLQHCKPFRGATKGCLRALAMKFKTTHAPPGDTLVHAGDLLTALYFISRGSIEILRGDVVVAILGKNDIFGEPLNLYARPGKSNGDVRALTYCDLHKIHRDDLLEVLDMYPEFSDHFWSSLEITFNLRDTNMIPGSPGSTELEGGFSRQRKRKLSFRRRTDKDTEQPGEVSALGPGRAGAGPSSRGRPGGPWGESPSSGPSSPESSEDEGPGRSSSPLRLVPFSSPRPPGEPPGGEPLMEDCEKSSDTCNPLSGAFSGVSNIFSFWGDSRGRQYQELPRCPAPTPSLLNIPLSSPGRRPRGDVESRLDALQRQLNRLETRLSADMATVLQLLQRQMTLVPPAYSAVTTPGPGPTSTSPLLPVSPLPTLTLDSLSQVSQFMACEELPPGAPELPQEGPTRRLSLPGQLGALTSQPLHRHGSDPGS

[3] = molecular target: Mast/stem cell growth factor receptor Kit (Homo sapiens, UniProt P10721)
Mast/stem cell growth factor receptor Kit, sequence (P10721 whole entry): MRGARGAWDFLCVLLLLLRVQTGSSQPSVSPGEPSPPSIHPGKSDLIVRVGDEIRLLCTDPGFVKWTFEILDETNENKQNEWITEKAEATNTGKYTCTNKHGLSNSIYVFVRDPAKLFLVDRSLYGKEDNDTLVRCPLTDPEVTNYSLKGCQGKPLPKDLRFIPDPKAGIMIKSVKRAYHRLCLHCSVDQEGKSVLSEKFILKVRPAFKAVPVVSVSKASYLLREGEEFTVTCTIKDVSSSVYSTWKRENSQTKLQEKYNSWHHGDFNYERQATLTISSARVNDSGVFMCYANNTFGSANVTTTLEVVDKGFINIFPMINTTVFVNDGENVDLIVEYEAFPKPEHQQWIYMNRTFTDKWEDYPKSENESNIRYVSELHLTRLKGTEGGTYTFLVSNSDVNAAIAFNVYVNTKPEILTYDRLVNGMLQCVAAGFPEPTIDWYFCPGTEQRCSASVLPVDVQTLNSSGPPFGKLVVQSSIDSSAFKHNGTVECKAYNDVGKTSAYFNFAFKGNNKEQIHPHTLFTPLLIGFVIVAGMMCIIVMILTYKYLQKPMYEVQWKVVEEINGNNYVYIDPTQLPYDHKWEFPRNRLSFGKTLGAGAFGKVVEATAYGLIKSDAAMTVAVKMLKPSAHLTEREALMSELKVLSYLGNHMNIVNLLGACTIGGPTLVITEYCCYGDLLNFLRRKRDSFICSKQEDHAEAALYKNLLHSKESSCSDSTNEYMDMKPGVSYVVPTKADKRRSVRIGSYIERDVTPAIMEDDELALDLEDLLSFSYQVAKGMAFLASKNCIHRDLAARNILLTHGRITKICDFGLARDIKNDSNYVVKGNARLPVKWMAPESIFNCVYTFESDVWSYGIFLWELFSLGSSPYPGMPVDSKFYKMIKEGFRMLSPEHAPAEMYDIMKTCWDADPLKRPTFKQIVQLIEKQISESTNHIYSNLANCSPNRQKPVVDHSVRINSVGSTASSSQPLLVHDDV
Description: Inhibition of c-kit (unknown origin) using peptide substrate incubated for 1 hrs in presence of ATP by fluorescence microplate reader analysis

[4] = molecular target: Ribosomal protein S6 kinase; test: Inhibition of p70S6K (unknown origin) using peptide substrate incubated for 1 hrs in presence of ATP by fluorescence microplate reader; assay type: protein assay, Homo sapiens
[5] = molecular target: T2, Tyrosine-protein kinase JAK3 (Homo sapiens, UniProt P52333); test: Inhibition of JAK3 (unknown origin) using peptide substrate incubated for 1 hrs in presence of ATP by fluorescence microplate reader
T2 sequence (P52333 whole entry): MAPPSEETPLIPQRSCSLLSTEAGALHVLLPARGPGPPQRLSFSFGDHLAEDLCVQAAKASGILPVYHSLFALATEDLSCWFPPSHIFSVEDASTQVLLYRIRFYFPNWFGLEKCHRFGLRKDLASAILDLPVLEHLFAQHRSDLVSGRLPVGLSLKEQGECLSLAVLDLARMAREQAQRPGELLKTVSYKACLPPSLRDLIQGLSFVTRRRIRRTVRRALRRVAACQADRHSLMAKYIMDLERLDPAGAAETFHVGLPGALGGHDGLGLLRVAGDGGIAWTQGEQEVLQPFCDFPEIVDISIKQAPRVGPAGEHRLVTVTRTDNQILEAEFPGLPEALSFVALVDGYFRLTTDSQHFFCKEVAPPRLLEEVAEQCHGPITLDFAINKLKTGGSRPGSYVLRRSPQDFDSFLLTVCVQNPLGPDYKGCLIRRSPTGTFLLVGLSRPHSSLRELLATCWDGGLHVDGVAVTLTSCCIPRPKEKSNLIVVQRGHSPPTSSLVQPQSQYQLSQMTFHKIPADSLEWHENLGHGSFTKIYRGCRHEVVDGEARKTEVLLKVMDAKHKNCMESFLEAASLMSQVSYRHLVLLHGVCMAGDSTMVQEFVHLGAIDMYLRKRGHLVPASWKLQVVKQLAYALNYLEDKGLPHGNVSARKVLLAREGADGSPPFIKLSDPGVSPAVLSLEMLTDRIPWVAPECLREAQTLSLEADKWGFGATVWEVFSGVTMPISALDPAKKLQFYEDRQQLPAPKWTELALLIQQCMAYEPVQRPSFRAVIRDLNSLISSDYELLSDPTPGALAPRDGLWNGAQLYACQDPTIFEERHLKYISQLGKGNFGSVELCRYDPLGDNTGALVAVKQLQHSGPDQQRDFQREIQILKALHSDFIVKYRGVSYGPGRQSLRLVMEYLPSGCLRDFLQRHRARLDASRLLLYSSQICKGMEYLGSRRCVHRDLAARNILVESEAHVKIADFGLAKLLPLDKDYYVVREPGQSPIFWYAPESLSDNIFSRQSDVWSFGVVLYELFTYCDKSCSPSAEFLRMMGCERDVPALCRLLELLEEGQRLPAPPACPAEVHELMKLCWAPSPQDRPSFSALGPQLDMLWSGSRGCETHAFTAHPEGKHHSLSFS

[6] = molecular target: Serine/threonine-protein kinase pim-1 (Homo sapiens, UniProt P11309); test: Inhibition of PIM1 (unknown origin) using peptide substrate incubated for 1 hrs in presence of ATP by fluorescence microplate reader
Serine/threonine-protein kinase pim-1, sequence (P11309 whole entry): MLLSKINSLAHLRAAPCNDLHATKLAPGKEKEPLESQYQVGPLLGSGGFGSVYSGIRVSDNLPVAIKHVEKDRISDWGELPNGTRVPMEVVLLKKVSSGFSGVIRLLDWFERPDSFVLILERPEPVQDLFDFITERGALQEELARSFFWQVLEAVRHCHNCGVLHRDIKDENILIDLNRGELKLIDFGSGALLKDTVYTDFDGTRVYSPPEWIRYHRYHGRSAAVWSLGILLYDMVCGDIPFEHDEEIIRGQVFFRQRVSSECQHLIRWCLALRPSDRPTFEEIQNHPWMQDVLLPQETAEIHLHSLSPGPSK

[7] = molecular target: T3, Serine/threonine-protein kinase 17B (Homo sapiens, UniProt O94768); test: Inhibition of DRAK2 (unknown origin) expressed in Escherichia coli incubated for 2 hrs by ADP-Glo assay
T3 sequence (O94768 whole entry): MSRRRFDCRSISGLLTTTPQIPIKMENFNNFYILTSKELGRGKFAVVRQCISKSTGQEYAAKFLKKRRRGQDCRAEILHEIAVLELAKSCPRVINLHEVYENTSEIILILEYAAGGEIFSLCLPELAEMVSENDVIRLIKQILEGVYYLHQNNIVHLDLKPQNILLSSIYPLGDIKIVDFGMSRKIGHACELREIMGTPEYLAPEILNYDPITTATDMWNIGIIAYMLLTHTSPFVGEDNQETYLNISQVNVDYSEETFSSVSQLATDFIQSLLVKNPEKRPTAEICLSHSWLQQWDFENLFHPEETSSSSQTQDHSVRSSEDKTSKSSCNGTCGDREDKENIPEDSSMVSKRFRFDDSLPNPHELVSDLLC

[8] = molecular target: T4, Serine/threonine-protein kinase Chk1 (Homo sapiens) (UniProt O14757); settings: MV4-11, dose 50-200 nM
T4 sequence (whole entry): T1 sequence (O14757 whole entry)
Description: Inhibition of CHK1 phosphorylation at S296 residue in human MV4-11 cells at 50 to 200 nM by Western blot analysis

[9] = molecular target: Cyclin-dependent kinase 2 (Homo sapiens, UniProt P24941); test: Inhibition of CDK2 (unknown origin) incubated for 1 hrs by fluorescence microplate reader
[10] = molecular target: T4, Serine/threonine-protein kinase Chk1 (Homo sapiens); settings: MV4-11, dose 50-200 nM; remark: listed apart in the source
Description: Inhibition of CHK1 in human MV4-11 cells assessed as decrease in c-Myc protein expression level at 50 to 200 nM by Western blot analysis

[11] = molecular target: T5, Interleukin-1 receptor-associated kinase 4 (Homo sapiens, UniProt Q9NWZ3); test: Inhibition of IRAK4 (unknown origin) using peptide substrate incubated for 1 hrs in presence of ATP by fluorescence microplate reader
T5 sequence (Q9NWZ3 whole entry): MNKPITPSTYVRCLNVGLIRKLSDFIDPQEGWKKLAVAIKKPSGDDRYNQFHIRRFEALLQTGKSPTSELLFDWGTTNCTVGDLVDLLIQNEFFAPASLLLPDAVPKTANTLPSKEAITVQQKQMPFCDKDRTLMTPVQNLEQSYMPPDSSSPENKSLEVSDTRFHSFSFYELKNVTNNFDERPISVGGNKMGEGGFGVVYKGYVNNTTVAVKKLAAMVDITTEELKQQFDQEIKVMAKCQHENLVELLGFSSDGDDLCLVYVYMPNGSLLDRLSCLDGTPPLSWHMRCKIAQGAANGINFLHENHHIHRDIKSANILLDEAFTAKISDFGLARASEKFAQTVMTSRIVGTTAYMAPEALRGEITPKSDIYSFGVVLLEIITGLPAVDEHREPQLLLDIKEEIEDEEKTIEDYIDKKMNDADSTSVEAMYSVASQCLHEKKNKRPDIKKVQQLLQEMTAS

[12] = molecular target: Tyrosine-protein kinase BTK (Homo sapiens, UniProt Q06187); test: Inhibition of BTK (unknown origin) using peptide substrate incubated for 1 hrs in presence of ATP by fluorescence microplate reader
Tyrosine-protein kinase BTK, sequence (Q06187 whole entry): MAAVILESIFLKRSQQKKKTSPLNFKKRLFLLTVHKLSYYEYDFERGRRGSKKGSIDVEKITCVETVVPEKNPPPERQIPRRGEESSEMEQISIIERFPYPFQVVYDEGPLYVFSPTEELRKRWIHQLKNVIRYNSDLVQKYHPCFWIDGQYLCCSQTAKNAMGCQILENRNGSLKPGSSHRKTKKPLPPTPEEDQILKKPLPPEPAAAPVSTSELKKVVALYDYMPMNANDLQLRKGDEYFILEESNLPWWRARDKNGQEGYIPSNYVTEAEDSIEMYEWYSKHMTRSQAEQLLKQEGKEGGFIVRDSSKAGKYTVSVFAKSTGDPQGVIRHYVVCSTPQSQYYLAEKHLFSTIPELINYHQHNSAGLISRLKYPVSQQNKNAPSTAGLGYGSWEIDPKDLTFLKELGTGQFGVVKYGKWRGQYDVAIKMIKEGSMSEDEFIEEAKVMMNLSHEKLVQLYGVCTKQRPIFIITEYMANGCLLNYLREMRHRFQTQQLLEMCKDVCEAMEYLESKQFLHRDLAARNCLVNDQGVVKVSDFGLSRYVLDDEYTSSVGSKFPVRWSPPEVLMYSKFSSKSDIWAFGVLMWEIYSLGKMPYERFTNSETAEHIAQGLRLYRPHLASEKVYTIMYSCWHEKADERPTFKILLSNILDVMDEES

[13] = molecular target: Epidermal growth factor receptor (Homo sapiens, UniProt P00533); test: Inhibition of EGFR (unknown origin) using peptide substrate incubated for 1 hrs in presence of ATP by fluorescence microplate reader
Epidermal growth factor receptor, sequence (P00533 whole entry): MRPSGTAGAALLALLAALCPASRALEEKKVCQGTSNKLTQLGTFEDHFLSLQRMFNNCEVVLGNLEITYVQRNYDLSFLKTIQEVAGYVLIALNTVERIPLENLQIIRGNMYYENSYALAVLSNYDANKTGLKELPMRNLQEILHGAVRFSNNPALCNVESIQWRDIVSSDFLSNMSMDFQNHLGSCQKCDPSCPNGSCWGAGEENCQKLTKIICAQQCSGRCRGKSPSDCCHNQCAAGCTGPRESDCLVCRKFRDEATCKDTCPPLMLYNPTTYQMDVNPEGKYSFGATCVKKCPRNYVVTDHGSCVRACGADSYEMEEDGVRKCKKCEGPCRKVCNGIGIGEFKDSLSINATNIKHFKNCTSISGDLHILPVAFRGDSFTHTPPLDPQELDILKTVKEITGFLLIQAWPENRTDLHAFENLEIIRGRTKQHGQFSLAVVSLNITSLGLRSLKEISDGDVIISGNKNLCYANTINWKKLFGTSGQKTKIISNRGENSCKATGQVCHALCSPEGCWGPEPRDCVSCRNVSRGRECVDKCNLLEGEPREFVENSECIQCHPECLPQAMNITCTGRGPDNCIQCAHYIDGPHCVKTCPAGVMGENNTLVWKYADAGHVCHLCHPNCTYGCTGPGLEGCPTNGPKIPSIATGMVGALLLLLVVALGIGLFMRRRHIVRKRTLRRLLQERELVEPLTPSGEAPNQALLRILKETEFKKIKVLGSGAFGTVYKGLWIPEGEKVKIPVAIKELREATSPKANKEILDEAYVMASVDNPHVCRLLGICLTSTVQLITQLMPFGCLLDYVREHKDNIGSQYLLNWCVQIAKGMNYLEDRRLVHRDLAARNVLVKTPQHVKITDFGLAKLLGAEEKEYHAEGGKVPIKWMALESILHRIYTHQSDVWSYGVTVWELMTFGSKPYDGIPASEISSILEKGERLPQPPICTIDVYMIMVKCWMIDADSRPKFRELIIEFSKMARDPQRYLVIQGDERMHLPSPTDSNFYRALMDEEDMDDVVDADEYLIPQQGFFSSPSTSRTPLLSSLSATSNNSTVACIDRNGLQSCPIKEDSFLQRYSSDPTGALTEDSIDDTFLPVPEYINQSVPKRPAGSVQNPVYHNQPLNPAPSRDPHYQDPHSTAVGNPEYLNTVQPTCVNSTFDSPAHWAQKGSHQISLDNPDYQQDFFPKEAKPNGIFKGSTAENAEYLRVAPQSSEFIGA

[14] = molecular target: T6, Aurora kinase A (Homo sapiens, UniProt O14965); test: Inhibition of Aurora A (unknown origin) expressed in Escherichia coli using peptide substrate incubated for 1 hrs in presence of ATP by fluorescence microplate reader
T6 sequence (O14965 whole entry): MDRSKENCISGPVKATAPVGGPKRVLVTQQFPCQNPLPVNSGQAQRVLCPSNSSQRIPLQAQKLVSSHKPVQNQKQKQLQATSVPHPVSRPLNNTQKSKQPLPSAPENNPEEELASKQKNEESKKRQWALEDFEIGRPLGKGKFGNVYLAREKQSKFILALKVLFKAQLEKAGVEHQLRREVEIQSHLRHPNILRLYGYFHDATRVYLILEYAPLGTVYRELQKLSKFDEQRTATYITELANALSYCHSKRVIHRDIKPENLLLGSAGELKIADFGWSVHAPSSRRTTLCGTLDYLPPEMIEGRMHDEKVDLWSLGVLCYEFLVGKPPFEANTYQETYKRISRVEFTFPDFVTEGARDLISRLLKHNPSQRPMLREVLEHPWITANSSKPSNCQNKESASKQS

Row | Compound | IC50 [1] [nM] | inhibition at 10 µM [2] [%] | IC50 [3] [nM] | also measured
1 | NCCCNc1nc(Nc2ccc3c(c2)COC3=O)ncc1C(F)(F)F | 93.6 | – | – | –
2 | CS(=O)(=O)N1CCCc2cc(Nc3ncc(C(F)(F)F)c(NCCCN)n3)ccc21 | 28.9 | 64.2 | 9810 | –
3 | NCCCNc1nc(Nc2ccc3c(c2)CCN(S(=O)(=O)C2CCCCC2)C3)ncc1C(F)(F)F | 100 | – | – | –
4 | NCCCNc1nc(Nc2ccc3c(c2)CCCN3S(=O)(=O)c2ccccc2)ncc1C(F)(F)F | 166 | – | – | –
5 | NCCCNc1nc(Nc2ccc3c(c2)CCCC3=O)ncc1C(F)(F)F | 38.6 | 76.1 | 10900 | –
6 | NCCCNc1nc(Nc2ccc3c(c2)OCO3)ncc1C(F)(F)F | 237 | – | – | –
7 | CS(=O)(=O)N1CCc2cc(Nc3ncc(C(F)(F)F)c(NCCCN)n3)ccc2C1 | 25.6 | 36.1 | 10500 | IC50 [4]: 834.85 nM; IC50 [5]: > 10000 nM; IC50 [6]: > 10000 nM; IC50 [7]: > 10000 nM; inhibition [8]: Active; IC50 [9]: 833 nM; inhibition [10]: Active; IC50 [11]: 865 nM; IC50 [12]: > 10000 nM; IC50 [13]: > 10000 nM; IC50 [14]: 1860 nM
8 | NCCCNc1nc(Nc2ccc3c(c2)CCS3(=O)=O)ncc1C(F)(F)F | 104 | – | – | –
9 | CC(=O)c1ccc(Nc2ncc(C(F)(F)F)c(NCCCN)n2)cc1 | 89.3 | – | – | –
10 | CS(=O)(=O)N1Cc2ccc(Nc3ncc(C(F)(F)F)c(NCCCN)n3)cc2C1 | 35.2 | 23.2 | 21300 | –
11 | NCCCNc1nc(Nc2ccc3c(c2)CCC3=O)ncc1C(F)(F)F | 144 | – | – | –
12 | NCCCNc1nc(Nc2ccc3c(c2)CCN(S(=O)(=O)c2ccccc2)C3)ncc1C(F)(F)F | 133 | – | – | –
13 | CS(=O)(=O)N1CCOc2cc(Nc3ncc(C(F)(F)F)c(NCCCN)n3)ccc21 | 183 | – | – | –
14 | CS(=O)(=O)N1CCc2cc(Nc3ncc(C(F)(F)F)c(NCCCN)n3)ccc21 | 32.5 | 39.5 | 12300 | –
